In PubChem BioAssay (NCI):
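Five compound concentrations were applied to cells in 96-well plates for 48 hours; endpoints were derived by simple linear interpolation of the resulting dose-response curve. TGI marks complete inhibition of growth.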

Experiments:
Assay in all cases: NCI anticancer screen, dose series, 48 h
[1] = test system: NCI-H226 lung
[2] = test system: HT29 colon
[3] = test system: NCI-H460 lung
[4] = test system: BT-549 breast
[5] = test system: NCI-H522 lung
[6] = test system: 786-0 renal
[7] = test system: U251 CNS
[8] = test system: HS 578T breast
[9] = test system: SK-MEL-28 melanoma
[10] = test system: HOP-62 NSCLC
[11] = test system: CCRF-CEM leukemia
[12] = test system: K-562 leukemia
[13] = test system: UACC-257 melanoma
[14] = test system: UACC-62 melanoma
[15] = test system: MDA-MB-231 breast
[16] = test system: SW-620 colon
[17] = test system: PC-3 prostate

Compound	TGI [1]	TGI [2]	TGI [3]	TGI [4]	TGI [5]	TGI [6]	TGI [7]	TGI [8]	TGI [9]	TGI [10]	TGI [11]	TGI [12]	TGI [13]	TGI [14]	TGI [15]	TGI [16]	TGI [17]
Cc1cn([C@@H]2O[C@H](CO[Si](C)(C)C(C)(C)C)[C@]3(O[C@H]3C(=O)NO)[C@H]2O[Si](C)(C)C(C)(C)C)c(=O)[nH]c1=O	3.69 µM	2.92 µM	3.15 µM	3.29 µM	3.12 µM	2.87 µM	3.07 µM	4.23 µM	3.33 µM	3.52 µM	2.76 µM	6.48 µM	6.92 µM	3.38 µM	4.19 µM	4.28 µM	5.66 µM
CCOC(=O)c1nc2ccccc2nc1Oc1cc(OC)cc(OC)c1	> 100 µM	> 100 µM	> 100 µM	> 100 µM	> 100 µM	> 100 µM	> 100 µM	> 100 µM	> 100 µM	> 100 µM	> 100 µM	> 100 µM	> 100 µM	> 100 µM	> 100 µM	> 100 µM	> 100 µM
COc1ccc2c(c1)/C(=C/c1c(O)[nH]c(=S)[nH]c1=O)C=N2	> 100 µM	> 100 µM	> 100 µM	> 100 µM	> 100 µM	> 100 µM	> 100 µM	> 100 µM	> 100 µM	> 100 µM	> 100 µM	> 100 µM	> 100 µM	> 100 µM	> 100 µM	> 100 µM	> 100 µM
COc1ccc2c(-c3csc(-c4c[nH]c5ccc(Br)cc45)n3)c[nH]c2c1	> 100 µM	> 100 µM	> 100 µM	> 100 µM	92.6 µM	> 100 µM	> 100 µM	> 100 µM	> 100 µM	> 100 µM	> 100 µM	> 100 µM	> 100 µM	> 100 µM	83.1 µM	> 100 µM	79.3 µM
O=C1C2C3C4C1C1C2[C@H](OCc2ccccc2)C3C1[C@H]4OCc1ccccc1 (stereo not given in full)	> 100 µM	32.7 µM	> 100 µM	> 100 µM	57.9 µM	> 100 µM	> 100 µM	60.4 µM	> 100 µM	> 100 µM	> 100 µM	> 100 µM	> 100 µM	> 100 µM	> 100 µM	> 100 µM	> 100 µM
CC(=O)OCC1OC(n2c3c(c(-c4ccc(C)cc4)c(C#N)c2=S)C(=O)CC(C)(C)C3)C(OC(C)=O)C(OC(C)=O)C1OC(C)=O (stereo not given)	61.8 µM	> 100 µM	> 100 µM	38.1 µM	> 100 µM	> 100 µM	> 100 µM	> 100 µM	66.3 µM	> 100 µM	> 100 µM	95.3 µM	38.3 µM	44.4 µM	62.1 µM	> 100 µM	60 µM
NS(=O)(=O)c1ccc(NC(=S)NC(=O)Nc2ccc(Cl)c(Cl)c2)cc1	43.8 µM	31.3 µM	> 69.8 µM	31.7 µM	37.3 µM	31.1 µM	37.8 µM	59.3 µM	43.5 µM	36.8 µM	70.7 µM	> 82.6 µM	41.4 µM	28.7 µM	33.5 µM	35.9 µM	30 µM
C#CCOC(=O)C(N)CC(N)=O (stereo not given)	> 100 µM	> 31.6 µM	> 100 µM	> 100 µM	> 100 µM	> 100 µM	> 100 µM	> 100 µM	> 100 µM	> 100 µM	> 100 µM	> 100 µM	> 100 µM	> 100 µM	> 100 µM	> 100 µM	> 100 µM
COc1cc2nc3n(c2cc1OC)C(O)c1c(Cl)nc(SC)nc1S3 (stereo not given)	28 µM	> 100 µM	19.6 µM	9.37 µM	4.36 µM	7.85 µM	26.3 µM	> 100 µM	23.2 µM	26.1 µM	3.91 µM	> 100 µM	52.5 µM	25.2 µM	> 81 µM	22.8 µM	> 49.8 µM
Cc1cccc(Nc2nc3ccccc3nc2NS(=O)(=O)c2ccc(N)cc2)c1	> 100 µM	> 100 µM	> 100 µM	> 100 µM	> 100 µM	> 100 µM	53.8 µM	> 100 µM	> 100 µM	> 100 µM	57.6 µM	> 100 µM	> 100 µM	> 100 µM	> 100 µM	> 100 µM	> 100 µM
Clc1ccc(Cc2nc3ccccc3o2)cc1	> 100 µM	> 100 µM	> 100 µM	> 100 µM	> 100 µM	> 100 µM	> 100 µM	> 100 µM	> 100 µM	> 100 µM	> 100 µM	> 100 µM	> 100 µM	> 100 µM	> 100 µM	> 100 µM	> 100 µM
COC1=C(C(c2cc(OC)c(OC)c(OC)c2)c2cc3c(cc2OC)OCO3)C(=O)OC1 (stereo not given)	79.7 µM	51.4 µM	> 84.7 µM	> 100 µM	> 100 µM	65.4 µM	> 96.7 µM	> 58.4 µM	87.9 µM	> 84 µM	> 68.8 µM	> 100 µM	> 100 µM	> 87 µM	> 93.5 µM	> 100 µM	> 70.4 µM
CC1=C(O)C(=O)C=C2C1=CC=C1[C@@]2(C)CC[C@@]2(C)C3C[C@@H](C)C(=O)[C@@H](O)[C@]3(C)CC[C@]12C (stereo not given in full)	11.1 µM	3.79 µM	37.6 µM	3.4 µM	2.34 µM	2.36 µM	2.88 µM	> 84.8 µM	4.17 µM	11.6 µM	1.87 µM	5.17 µM	7.46 µM	3.28 µM	3.75 µM	2.32 µM	4.23 µM
CN1CCN(c2cc3[nH]c4cc(O)cc(O)c4c(=O)c3cc2N)CC1	5.25 µM	63.6 µM	> 100 µM	95.1 µM	63.5 µM	> 100 µM	68.5 µM	> 100 µM	83.4 µM	> 100 µM	32.9 µM	36.1 µM	> 100 µM	2.91 µM	3.32 µM	65.3 µM	52.7 µM
O=C1CSCC(=O)Nc2ccccc2N1	> 100 µM	> 100 µM	> 100 µM	> 100 µM	> 100 µM	> 100 µM	> 100 µM	> 100 µM	> 100 µM	> 100 µM	> 100 µM	> 100 µM	> 100 µM	> 100 µM	> 100 µM	> 100 µM	> 100 µM
CN(C)c1cccc(-c2cc(=S)c3cc4c(cc3[nH]2)OCO4)c1	> 100 µM	24.7 µM	> 100 µM	> 100 µM	67.7 µM	> 100 µM	> 100 µM	> 100 µM	> 100 µM	> 100 µM	> 100 µM	> 100 µM	> 100 µM	> 100 µM	> 100 µM	> 100 µM	> 100 µM
NC(N)=N/N=C/c1c(-c2ccccc2[N+](=O)[O-])nc2sccn12	39.1 µM	81.6 µM	39.7 µM	> 100 µM	39.8 µM	35.3 µM	31.2 µM	> 100 µM	> 100 µM	69.5 µM	55 µM	33.8 µM	35.6 µM	32.7 µM	33.4 µM	38 µM	71.1 µM
CC(C)=CCC[C@@H](C)[C@H]1CC[C@@]2(C)[C@@H]3CC[C@H]4C(C)(C)[C@@H](O)CC[C@@]45C[C@@]35CC[C@]12C	> 74.5 µM	> 100 µM	39.8 µM	55.6 µM	49.3 µM	> 61.6 µM	31.1 µM	> 100 µM	> 100 µM	59.6 µM	63.5 µM	> 100 µM	> 100 µM	> 100 µM	> 64.6 µM	> 100 µM	> 100 µM
CC(C)(C)N(Cc1ccccc1)C(=O)/C=C\S(=O)c1ccccc1 (stereo not given)	16.4 µM	14.3 µM	16 µM	12.9 µM	2.7 µM	4.87 µM	15.5 µM	7.19 µM	21.7 µM	21.2 µM	> 44.9 µM	> 100 µM	16.2 µM	15.2 µM	11.8 µM	9.13 µM	13.2 µM
O=C(CNc1ccccc1[N+](=O)[O-])Nn1cnc2ccc(S(=O)(=O)Nc3ccccc3[N+](=O)[O-])cc2c1=O	> 100 µM	> 100 µM	> 100 µM	> 100 µM	> 100 µM	> 100 µM	> 100 µM	> 100 µM	> 100 µM	> 100 µM	> 100 µM	> 100 µM	> 100 µM	> 100 µM	> 100 µM	> 100 µM	> 100 µM
